Results published in patent US20240158392A1 (Janssen Biotech, Inc., priority 2021, published 2024).

target: SIK2 (Homo sapiens, UniProt Q9H0K1); assay: SIK2 Enzymatic Assay High Version 2 (High ATP); format: biochemical; settings: not given
Summary of the method: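 At room temperature, enzyme (6 nM, 2× final) was preincubated with compound for 30 min, then 6 mM ATP and 400 μM HDAC5tide (both 2× final) were added for 2 h. ADP formed was measured by ADP-Glo Max (2 h reagent, 1 h detection) using luminescence.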

SIK2, sequence (Q9H0K1 whole entry, species assumed): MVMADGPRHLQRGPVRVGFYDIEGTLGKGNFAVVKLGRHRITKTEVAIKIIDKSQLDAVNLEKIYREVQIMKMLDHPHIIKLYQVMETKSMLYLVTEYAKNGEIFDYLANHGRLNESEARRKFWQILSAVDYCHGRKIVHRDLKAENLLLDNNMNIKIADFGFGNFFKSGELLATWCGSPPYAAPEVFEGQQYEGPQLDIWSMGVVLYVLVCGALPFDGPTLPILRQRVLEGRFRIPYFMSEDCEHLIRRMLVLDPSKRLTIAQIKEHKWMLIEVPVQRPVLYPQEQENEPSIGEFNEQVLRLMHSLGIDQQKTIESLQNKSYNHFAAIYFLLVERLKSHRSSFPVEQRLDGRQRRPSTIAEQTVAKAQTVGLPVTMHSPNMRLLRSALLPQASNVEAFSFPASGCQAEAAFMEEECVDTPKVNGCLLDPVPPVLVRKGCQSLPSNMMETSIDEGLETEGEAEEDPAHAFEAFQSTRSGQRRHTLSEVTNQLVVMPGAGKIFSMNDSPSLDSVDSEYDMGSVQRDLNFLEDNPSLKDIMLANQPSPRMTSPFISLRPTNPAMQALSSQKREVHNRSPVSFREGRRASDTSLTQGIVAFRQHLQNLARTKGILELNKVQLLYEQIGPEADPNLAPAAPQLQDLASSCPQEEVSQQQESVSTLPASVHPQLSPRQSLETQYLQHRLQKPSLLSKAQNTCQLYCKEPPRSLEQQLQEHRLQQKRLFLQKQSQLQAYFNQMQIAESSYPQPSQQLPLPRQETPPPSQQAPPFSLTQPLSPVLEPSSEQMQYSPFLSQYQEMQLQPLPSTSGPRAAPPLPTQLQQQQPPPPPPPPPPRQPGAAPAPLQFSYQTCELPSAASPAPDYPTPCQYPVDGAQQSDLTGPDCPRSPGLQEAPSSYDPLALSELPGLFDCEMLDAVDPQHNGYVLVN

Compound	IC50
Cc1cc(-c2ccn3nc(NC(=O)C4CC4)cc3c2)c(O[C@@H]2CC[C@@H](O)C2)cn1 (stereo in doubt) [Example 569, (1*R, 3*R)—N-[5-[5-(3-hydroxycyclopentoxy)-2-methyl-4-pyridyl]pyrazolo[1,5-a]pyridin-2-yl]cyclopropanecarboxamide]	0.0717 µM
Cc1cc(-c2ccn3nc(Nc4cnn(C(F)F)c4)cc3c2)c(O[C@H]2C[C@H]3COC[C@@H](C2)N3C)cn1 [Example 116, N-(1-(difluoromethyl)-1H-pyrazol-4-yl)-5-(2-methyl-5-(((1R,5S,7s)-9-methyl-3-oxa-9-azabicyclo[3.3.1]nonan-7-yl)oxy)pyridin-4-yl)pyrazolo[1,5-a]pyridin-2-amine]	< 0.000847 µM
Cc1cc(-c2ccn3nc(Nc4cnn(C(F)F)c4)cc3c2)c(O[C@H]2C[C@H]3COC[C@@H](C2)N3)cn1 [Example 117, 5-(5-(((1R,5S,7s)-3-oxa-9-azabicyclo[3.3.1]nonan-7-yl)oxy)-2-methylpyridin-4-yl)-N-(1-(difluoromethyl)-1H-pyrazol-4-yl)pyrazolo[1,5-a]pyridin-2-amine]	0.000904 µM
Cc1cc(-c2ccn3nc(Nc4nn(C)cc4F)cc3c2)c(O[C@H]2C[C@H]3COC[C@@H](C2)N3C)cn1 [Example 118, N-(4-fluoro-1-methyl-1H-pyrazol-3-yl)-5-(2-methyl-5-(((1R,5S,7s)-9-methyl-3-oxa-9-azabicyclo[3.3.1]nonan-7-yl)oxy)pyridin-4-yl)pyrazolo[1,5-a]pyridin-2-amine]	< 0.000847 µM
Cc1cc(-c2ccn3nc(Nc4cn(C)nc4F)cc3c2)c(O[C@H]2C[C@H]3COC[C@@H](C2)N3C)cn1 [Example 119, N-(3-fluoro-1-methyl-1H-pyrazol-4-yl)-5-(2-methyl-5-(((1R,5S,7s)-9-methyl-3-oxa-9-azabicyclo[3.3.1]nonan-7-yl)oxy)pyridin-4-yl)pyrazolo[1,5-a]pyridin-2-amine]	0.00127 µM
Cc1cc(-c2ccn3nc(Nc4cc(F)n(C)n4)cc3c2)c(O[C@H]2C[C@H]3COC[C@@H](C2)N3C)cn1 [Example 120, N-(5-fluoro-1-methyl-1H-pyrazol-3-yl)-5-(2-methyl-5-(((1R,5S,7s)-9-methyl-3-oxa-9-azabicyclo[3.3.1]nonan-7-yl)oxy)pyridin-4-yl)pyrazolo[1,5-a]pyridin-2-amine]	< 0.000847 µM
Cc1cc(-c2ccn3nc(Nc4cnn(CC(C)(C)O)c4)cc3c2)c(O[C@H]2C[C@H]3COC[C@@H](C2)N3)cn1 [Example 121]	0.00116 µM
Cc1cc(-c2ccn3nc(Nc4cn(CC(C)(C)O)nc4C(=O)C(F)(F)F)cc3c2)c(O[C@H]2C[C@H]3COC[C@@H](C2)N3)cn1 [Example 122, 1-(4-((5-(5-(((1R,5S,7s)-3-oxa-9-azabicyclo[3.3.1]nonan-7-yl)oxy)-2-methylpyridin-4-yl)pyrazolo[1,5-a]pyridin-2-yl)amino)-1-(2-hydroxy-2-methylpropyl)-1H-pyrazol-3-yl)-2,2,2-trifluoroethan-1-one]	2.43 µM

same assay, conditions: enzyme 6 nM, 6 mM ATP and 400 μM HDAC5tide (each 2× final concentration); 30 minutes pre-incubation, 2 hours; ADP-Glo Max luminescence; read-out: SIK2 high ATP IC50 (μM) (Test Example 2)

IC50	Compound
0.0416 µM	Cc1cc(-c2ccn3nc(Nc4cc(C)nc(C)n4)cc3c2)c(OC[C@@H](O)C2(C)CC2)cn1 (single isomer, unassigned) [Example 549, (*S)-2-[[4-[2-[(2,6-dimethylpyrimidin-4-yl)amino]pyrazolo[1,5-a]pyridin-5-yl]-6-methyl-3-pyridyl]oxy]-1-(1-methylcyclopropyl)ethanol]
0.0724 µM	Cc1cc(-c2ccn3nc(Nc4cc(C)nc(C)n4)cc3c2)c(O[C@H]2COC(C)(C)C2)cn1 (single isomer, unassigned) [Example 577, (*R)—N-(2,6-dimethylpyrimidin-4-yl)-5-[5-(5,5-dimethyltetrahydrofuran-3-yl)oxy-2-methyl-4-pyridyl]pyrazolo[1,5-a]pyridin-2-amine]
0.0998 µM	Cc1cc(-c2ccn3nc(Nc4cc(C)nc(C)n4)cc3c2)c(O[C@H]2CCOC(C)(C)C2)cn1 (single isomer, unassigned) [Example 578, (*S)—N-(2,6-dimethylpyrimidin-4-yl)-5-[5-(2,2-dimethyltetrahydropyran-4-yl)oxy-2-methyl-4-pyridyl]pyrazolo[1,5-a]pyridin-2-amine]
0.113 µM	Cc1cc(-c2ccn3nc(NC(=O)C4CC4)cc3c2)c(O[C@@H]2CCC[C@H](O)C2)cn1 (single isomer, unassigned) [Example 602, (1*R, 3*S)—N-[5-[5-(3-hydroxycyclohexoxy)-2-methyl-4-pyridyl]pyrazolo[1,5-a]pyridin-2-yl]cyclopropanecarboxamide]
0.202 µM	Cc1cc(-c2ccn3nc(NC(=O)C4CC4)cc3c2)c(OCC(C)(O)C2CC2)cn1 (single isomer, unassigned) [Example 603, (*S)—N-[5-[5-(2-cyclopropyl-2-hydroxy-propoxy)-2-methyl-4-pyridyl]pyrazolo[1,5-a]pyridin-2-yl]cyclopropanecarboxamide]
0.203 µM	Cc1cc(-c2ccn3nc(NC(=O)C4CC4)cc3c2)c(OC[C@@]2(C)CCN2C)cn1 (single isomer, unassigned) [Example 604, (*R)—N-[5-[5-[(1,2-dimethylazetidin-2-yl)methoxy]-2-methyl-4-pyridyl]pyrazolo[1,5-a]pyridin-2-yl]cyclopropanecarboxamide]
0.1 µM	Cc1cc(-c2ccn3nc(Nc4cc(C)nc(C)n4)cc3c2)c(OC[C@H]2CC3(CCC3)CO2)cn1 (single isomer, unassigned) [Example 607, (*R)—N-(2,6-dimethylpyrimidin-4-yl)-5-[2-methyl-5-(7-oxaspiro[3.4]octan-6-ylmethoxy)-4-pyridyl]pyrazolo[1,5-a]pyridin-2-amine]
0.0922 µM	Cc1cc(-c2ccn3nc(Nc4cc(C)nc(C)n4)cc3c2)c(OC[C@]2(O)CCCOC2)cn1 (single isomer, unassigned) [Example 608, (*S)-3-[[4-[2-[(2,6-dimethylpyrimidin-4-yl)amino]pyrazolo[1,5-a]pyridin-5-yl]-6-methyl-3-pyridyl]oxymethyl]tetrahydropyran-3-ol]
0.0829 µM	Cc1cc(-c2ccn3nc(Nc4cc(C)nc(C)n4)cc3c2)c(O[C@H]2CCS(=O)(=O)NC2)cn1 (single isomer, unassigned) [Example 610, (*S)—N-(2,6-dimethylpyrimidin-4-yl)-5-[5-(1,1-dioxothiazinan-4-yl)oxy-2-methyl-4-pyridyl]pyrazolo[1,5-a]pyridin-2-amine]
0.0317 µM	Cc1cc(Nc2cc3cc(-c4cc(O[C@H](C)C#N)ncc4OCC(C)(C)C#N)ccn3n2)nc(C)n1 (single isomer, unassigned) [Example 680, (*R)-3-[[6-(1-cyanoethoxy)-4-[2-[(2,6-dimethylpyrimidin-4-yl)amino]pyrazolo[1,5-a]pyridin-5-yl]-3-pyridyl]oxy]-2,2-dimethyl-propanenitrile]
0.0347 µM	Cc1cc(Nc2cc3cc(-c4cc(O[C@@H](C)C#N)ncc4OCC(C)(C)C#N)ccn3n2)nc(C)n1 (single isomer, unassigned) [Example 681, (*S)-3-[[6-(1-cyanoethoxy)-4-[2-[(2,6-dimethylpyrimidin-4-yl)amino]pyrazolo[1,5-a]pyridin-5-yl]-3-pyridyl]oxy]-2,2-dimethyl-propanenitrile]
0.00251 µM	C[C@@H](C#N)Oc1cc(-c2ccn3nc(NC(=O)C4CC4)cc3c2)c(OCC(C)(C)C#N)cn1 (single isomer, unassigned) [Example 726, (*S)—N-[5-[2-(1-cyanoethoxy)-5-(2-cyano-2-methyl-propoxy)-4-pyridyl]pyrazolo[1,5-a]pyridin-2-yl]cyclopropanecarboxamide]
0.00997 µM	Cc1cc(Nc2cc3cc(-c4cc(OC(F)F)ncc4OC[C@@H]4CC(=O)NC4(C)C)ccn3n2)nc(C)n1 (single isomer, unassigned) [Example 731]
0.00164 µM	Cc1cc(Nc2cc3cc(-c4cc(OC(F)F)ncc4OC[C@H]4CC(=O)NC4(C)C)ccn3n2)nc(C)n1 (single isomer, unassigned) [Example 732, (*S)-4-[[6-(difluoromethoxy)-4-[2-[(2,6-dimethylpyrimidin-4-yl)amino]pyrazolo[1,5-a]pyridin-5-yl]-3-pyridyl]oxymethyl]-5,5-dimethyl-pyrrolidin-2-one]
0.00304 µM	Cc1cc(Nc2cc3cc(-c4cc(OC(F)F)ncc4OC[C@@H]4CC(=O)NC4(C)C)ccn3n2)nc(C)n1 (single isomer, unassigned) [Example 738, (*R)-4-[[6-(difluoromethoxy)-4-[2-[(2,6-dimethylpyrimidin-4-yl)amino]pyrazolo[1,5-a]pyridin-5-yl]-3-pyridyl]oxymethyl]-5,5-dimethyl-pyrrolidin-2-one]
0.00119 µM	Cc1cc(Nc2cc3cc(-c4cc(OC(F)F)ncc4OC[C@H]4CC(=O)NC4(C)C)ccn3n2)nc(C)n1 (single isomer, unassigned) [Example 739, (*S)-4-[[6-(difluoromethoxy)-4-[2-[(2,6-dimethylpyrimidin-4-yl)amino]pyrazolo[1,5-a]pyridin-5-yl]-3-pyridyl]oxymethyl]-5,5-dimethyl-pyrrolidin-2-one]
0.00215 µM	Cc1cc(Nc2cc3cc(-c4cc(OC(F)F)ncc4OCC(C)(N)C(F)(F)F)ccn3n2)nc(C)n1 (single isomer, unassigned) [Example 755, (*R)-5-[5-(2-amino-3,3,3-trifluoro-2-methyl-propoxy)-2-(difluoromethoxy)-4-pyridyl]-N-(2,6-dimethylpyrimidin-4-yl)pyrazolo[1,5-a]pyridin-2-amine]
0.275 µM	Cc1cc(Nc2cc3cc(-c4cc(OC(F)F)ncc4OCC(C)(N)C(F)(F)F)ccn3n2)nc(C)n1 (single isomer, unassigned) [Example 756, (*S)-5-[5-(2-amino-3,3,3-trifluoro-2-methyl-propoxy)-2-(difluoromethoxy)-4-pyridyl]-N-(2,6-dimethylpyrimidin-4-yl)pyrazolo[1,5-a]pyridin-2-amine]
